Square brackets hold non-standard residues; d marks the D form. Peptide text beside a SMILES is read from it. * marks the point of attachment. X1 = O=C(O)CC[C@H](NC(=O)N[C@@H](CCCCNC(=O)CCCCCCC(=O)*)C(=O)O)C(=O)O; DOTAGA = O=C(O)CN1CCN(CC(=O)O)CCN(C(CCC(=O)*)C(=O)O)CCN(CC(=O)O)CC1; dPhe(4-NH2) = Nc1ccc(C[C@@H](N)C(=O)O)cc1; dTyr(3-I) = N[C@H](Cc1ccc(O)c(I)c1)C(=O)O; Phe(4-NH2) = Nc1ccc(C[C@H](N)C(=O)O)cc1; d2Nal = N[C@H](Cc1ccc2ccccc2c1)C(=O)O
What was measured:
PSMA = PSMA (Homo sapiens, UniProt Q04609); experiment: Internalization of radiolabeled PSMA inhibitors into cells (PMPA blockade); assay type: cell-based; parameters: endogenous in cells; LNCaP is named only for the xenografts; settings: 177Lu-labeled inhibitors, 37°C; reference basis of the % not stated
Protocol: The ^177Lu-labeled compounds, for in vitro studies, were prepared as previously described (Sosabowski, J.K. and S.J. Mather, Conjugation of DOTA-like chelating agents to peptides and radiolabeling with trivalent metallic isotopes. Nat. Protocols, 2006. 1(2): p. 972-976) with minor modifications and used without further purification. In short, to a reaction volume of 10 µL 1.0 M NH4OAc buffer pH = 5.9 was added 0.75 to 1.0 nmol tracer (7.5 to 10 µL), 10 to 40 MBq ^177LuCl3 (Specific Activity (AS) > 3000 GBq/mg, 740 MBq/mL, 0.04 M HCl, ITG, Garching, Germany) and finally filled up to 100 µL with trace-pure Water (Merck, Darmstadt, Germany). The reaction mixture was heated for 30 min at 95°C and the radiochemical purity was determined using Radio-TLC.
[…] Each well was treated with either 25 µL of either DMEM-F12 (5% BSA) or a 100 µM PMPA solution for blockade. Next, 25 µL of the respective ^68Ga-and ^177Lu-labeled PSMA inhibitors (2.0 nM / 5.0 nM) was added and the cells incubated at 37°C for 5, 15, 30 and 60 min, respectively. The experiment was terminated by placing the 24-well plate on ice for 3 min and consecutive removal of the medium. Each well was rinsed with 250 µL HBSS and the fractions from these first two steps combined, representing the amount of free radioligand. Removal of surface bound activity was accomplished by incubation of the cells with 250 µL of ice-cold PMPA (10 µM in PBS) solution for 5 min and rinsed again with another 250 µL of ice-cold PBS. The internalized activity was determined by incubation of the cells in 250 µL 1.0 M NaOH and the combination with the fraction of a subsequent wash step with 250 µL 1.0 M NaOH. Each experiment (control and blockade) was performed in triplicate for each time point. Free, surface bound and internalized activity was quantified in a γ-counter.

[1] = assay type: physicochemical
Protocol: To a volume of 500 µL n-octanol, 0.5 to 1.0 MBq of the radiolabeled PSMA inhibitor in 500 µL PBS (pH = 7.4) was added and rigorously vortexted for 3 min (n = 6). For quantitative phase separation, the mixture was centrifuged at 6,000 g for 5 min (Biofuge 15, Heraus Sepatech, Osterode, Germany).

Chain of PSMA (Q04609 whole entry): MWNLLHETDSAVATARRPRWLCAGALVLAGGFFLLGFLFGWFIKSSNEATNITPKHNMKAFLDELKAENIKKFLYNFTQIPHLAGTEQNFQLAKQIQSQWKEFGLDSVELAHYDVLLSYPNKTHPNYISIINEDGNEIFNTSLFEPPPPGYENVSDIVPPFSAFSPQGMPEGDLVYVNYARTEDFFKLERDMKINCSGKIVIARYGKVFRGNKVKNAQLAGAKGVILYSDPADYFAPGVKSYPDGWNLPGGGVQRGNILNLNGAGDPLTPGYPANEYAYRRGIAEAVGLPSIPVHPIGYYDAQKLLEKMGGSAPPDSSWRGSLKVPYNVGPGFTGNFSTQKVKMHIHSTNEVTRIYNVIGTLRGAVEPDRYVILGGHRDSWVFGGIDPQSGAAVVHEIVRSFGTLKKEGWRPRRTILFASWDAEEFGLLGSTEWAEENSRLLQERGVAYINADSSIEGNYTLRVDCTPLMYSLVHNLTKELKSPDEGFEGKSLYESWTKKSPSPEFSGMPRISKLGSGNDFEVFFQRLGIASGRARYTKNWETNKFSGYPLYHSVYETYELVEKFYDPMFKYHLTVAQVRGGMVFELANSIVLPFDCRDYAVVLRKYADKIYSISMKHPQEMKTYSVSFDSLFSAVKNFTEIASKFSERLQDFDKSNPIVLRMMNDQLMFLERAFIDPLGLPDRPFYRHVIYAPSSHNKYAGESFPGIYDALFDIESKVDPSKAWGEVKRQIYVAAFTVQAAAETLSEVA

| Internalization [%] (PSMA) | Structure (SMILES) | logP [1] |
| --- | --- | --- |
| 166.92 ± 2.4% | Nc1ccc(C[C@H](NC(=O)CCC(C(=O)O)N2CCN(CC(=O)O)CCN(CC(=O)O)CCN(CC(=O)O)CC2)C(=O)N[C@H](Cc2ccc(O)c(I)c2)C(=O)N[C@H](Cc2ccccc2)C(=O)N[C@H](CCCCNC(=O)CCCCCCC(=O)NCCCC[C@H](NC(=O)N[C@@H](CCC(=O)O)C(=O)O)C(=O)O)C(=O)O)cc1 (stereo partly drawn) [[^nat/177Lu]PSMA-3, DOTAGA-(4-NH2)F-(l-y)-f-k-KuE, metal not drawn] ({DOTAGA}-[Phe(4-NH2)][dTyr(3-I)][dF][dK](X1)-OH) |  |
| 122.15 ± 1.3% | Nc1ccc(C[C@@H](NC(=O)CCC(C(=O)O)N2CCN(CC(=O)O)CCN(CC(=O)O)CCN(CC(=O)O)CC2)C(=O)N[C@H](Cc2ccc(O)c(I)c2)C(=O)N[C@H](Cc2ccccc2)C(=O)N[C@H](CCCCNC(=O)CCCCCCC(=O)NCCCC[C@H](NC(=O)N[C@@H](CCC(=O)O)C(=O)O)C(=O)O)C(=O)O)cc1 (stereo partly drawn) [[^nat/177Lu]PSMA-2, DOTAGA-(4-NH2)f-(l-y)-f-k-KuE, metal not drawn] ({DOTAGA}-[dPhe(4-NH2)][dTyr(3-I)][dF][dK](X1)-OH) | -4.11 ± 0.06 |
| 71.7 ± 0.7% | O=C(O)CC[C@H](NC(=O)N[C@@H](CCCCNC(=O)CCCCCCC(=O)NCCCC[C@@H](NC(=O)[C@@H](Cc1ccc2ccccc2c1)NC(=O)[C@@H](Cc1ccc(O)cc1)NC(=O)CCC(C(=O)O)N1CCN(CC(=O)O)CCN(CC(=O)O)CCN(CC(=O)O)CC1)C(=O)O)C(=O)O)C(=O)O (some centres unmarked) [[^nat/177Lu]PSMA-4, DOTAGA-y-nal-k-KuE, metal not drawn, reference compound] | -4.11 ± 0.06 |
| 108.8 ± 2.5% | Nc1ccc(C[C@H](NC(=O)CCC(C(=O)O)N2CCN(CC(=O)O)CCN(CC(=O)O)CCN(CC(=O)O)CC2)C(=O)N[C@H](Cc2ccc(O)cc2)C(=O)N[C@H](Cc2ccc3ccccc3c2)C(=O)N[C@H](CCCCNC(=O)CCCCCCC(=O)NCCCC[C@H](NC(=O)N[C@@H](CCC(=O)O)C(=O)O)C(=O)O)C(=O)O)cc1 (some centres unmarked) [[^nat/177Lu]PSMA-6, DOTAGA-(4-NH2)F-y-nal-k-KuE, metal not drawn] ({DOTAGA}-[Phe(4-NH2)][dY][d2Nal][dK](X1)-OH) |  |
| 118.6 ± 0.5% | O=C(O)CC[C@H](NC(=O)N[C@@H](CCCCNC(=O)[C@@H](Cc1ccc(I)cc1)NC(=O)CCCC(=O)NCCCC[C@@H](NC(=O)[C@@H](Cc1ccc2ccccc2c1)NC(=O)[C@@H](Cc1ccc(O)cc1)NC(=O)CCC(C(=O)O)N1CCN(CC(=O)O)CCN(CC(=O)O)CCN(CC(=O)O)CC1)C(=O)O)C(=O)O)C(=O)O (stereo partly drawn) [[^nat/177Lu]PSMA-10, DOTAGA-y-nal-k(Glut-(l-f)-KuE), metal not drawn, reference compound] | -3.05 ± 0.02 |
